# In patent US12162872B2, “Cycloalkylurea derivative” (Sumitomo Pharma Co., Ltd., priority 2019, dated 2024):
# Target: T1, Human orexin receptor type 2 (Homo sapiens, UniProt O43614)
# T1 construct: expressed in transfected cells; host or cells: CHO cells (transient expression)
# T1 sequence (O43614 1-444): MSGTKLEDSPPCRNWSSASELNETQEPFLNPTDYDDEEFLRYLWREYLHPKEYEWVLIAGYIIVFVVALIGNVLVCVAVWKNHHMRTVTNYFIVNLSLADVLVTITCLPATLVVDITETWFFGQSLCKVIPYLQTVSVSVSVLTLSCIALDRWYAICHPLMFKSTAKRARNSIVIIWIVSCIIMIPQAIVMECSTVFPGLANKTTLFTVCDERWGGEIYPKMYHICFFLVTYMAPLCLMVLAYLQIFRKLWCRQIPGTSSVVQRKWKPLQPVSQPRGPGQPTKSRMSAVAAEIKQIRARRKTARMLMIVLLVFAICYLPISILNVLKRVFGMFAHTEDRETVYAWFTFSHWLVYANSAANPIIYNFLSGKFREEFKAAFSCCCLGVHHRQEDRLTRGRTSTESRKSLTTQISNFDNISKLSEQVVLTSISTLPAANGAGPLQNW
# Test: Test 2: Evaluation of agonist activity for orexin receptor type 2 (aequorin luminescence, intracellular calcium mobilization in CHO cells)
# Assay type: cell-based
# Details: relative percentage of luminescence for the luminescence (100%) of Orexin A (100 pM); CHO cells transiently expressing human orexin receptor type 2 and apoaequorin; Orexin A Lot. 671009
# How it was run: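 CHO cells transiently co-expressing the receptor and apoaequorin, incubated 16–22 h, were loaded 2 h at room temperature with 1 μM coelenterazine hcp (final). Compounds in Hanks/20 mM HEPES/0.1% BSA (0.1% DMSO final) were added and the calcium luminescence was read and expressed as % of Orexin A (100 pM).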
row,Structure (SMILES),agonist activity (%)
1,"CN(CC1CC1)C1CCN([C@H]2CCCC(F)(F)[C@@H]2NC(=O)N2CCC(C)(c3noc([C@@H]4C[C@@H]4F)n3)CC2)CC1 [Example 158, N-[(1R,6S)-6-{4-[(cyclopropylmethyl)(methyl)amino]piperidin-1-yl}-2,2-difluorocyclohexyl]-4-{5-[(1S,2S)-2-fluorocyclopropyl]-1,2,4-oxadiazol-3-yl}-4-methylpiperidine-1-carboxamide]",389%
2,"CC(C)(C)CN1CC[C@H](O[C@H]2CCCC(F)(F)[C@@H]2NC(=O)N2CCC(C)(c3noc(C4CC4)n3)CC2)C1 [Example 119, 4-(5-cyclopropyl-1,2,4-oxadiazol-3-yl)-N-[(1R,6S)-6-{[(3S)-1-(2,2-dimethylpropyl)pyrrolidin-3-yl]oxy}-2,2-difluorocyclohexyl]-4-methylpiperidine-1-carboxamide]",378%
3,"CC(C)(F)CN1CC[C@H](O[C@H]2CCCC(F)(F)[C@@H]2NC(=O)N2CCC(C)(c3noc([C@@H]4C[C@@H]4F)n3)CC2)C1 [Example 143, N-[(1R,6S)-2,2-difluoro-6-{[(3S)-1-(2-fluoro-2-methylpropyl)pyrrolidin-3-yl]oxy}cyclohexyl]-4-{5-[(1S,2S)-2-fluorocyclopropyl]-1,2,4-oxadiazol-3-yl}-4-methylpiperidine-1-carboxamide]",444%
4,"CC(C)c1cn([C@H]2CCCC(F)(F)[C@@H]2NC(=O)N2CCC(C)(c3noc([C@@H]4C[C@@H]4F)n3)CC2)nn1 [Example 93, N-{(1R,6S)-2,2-difluoro-6-[4-(propan-2-yl)-1H-1,2,3-triazol-1-yl]cyclohexyl}-4-{5-[(1S,2S)-2-fluorocyclopropyl]-1,2,4-oxadiazol-3-yl}-4-methylpiperidine-1-carboxamide]",365%
5,"CC(C)N(C)C1CN([C@H]2CCCC(F)(F)[C@@H]2NC(=O)N2CCC(C)(c3noc([C@@H]4C[C@@H]4F)n3)CC2)C1 [Example 148, N-[(1R,6S)-2,2-difluoro-6-{3-[methyl(propan-2-yl)amino]azetidin-1-yl}cyclohexyl]-4-{5-[(1S,2S)-2-fluorocyclopropyl]-1,2,4-oxadiazol-3-yl}-4-methylpiperidine-1-carboxamide]",391%
6,"CC(C)N1CC[C@@H](N(C)[C@H]2CCCC(F)(F)[C@@H]2NC(=O)N2CCC(C)(c3noc([C@@H]4C[C@@H]4F)n3)CC2)C1 [Example 113, N-[(1R,6S)-2,2-difluoro-6-{methyl[(3R)-1-(propan-2-yl)pyrrolidin-3-yl]amino}cyclohexyl]-4-{5-[(1S,2S)-2-fluorocyclopropyl]-1,2,4-oxadiazol-3-yl}-4-methylpiperidine-1-carboxamide]",374%
7,"CC(C)N(C)[C@H]1CCN([C@H]2CCCC(F)(F)[C@@H]2NC(=O)N2CCC(C)(c3noc([C@@H]4C[C@@H]4F)n3)CC2)C1 [Example 96, N-[(1R,6S)-2,2-difluoro-6-{(3S)-3-[methyl(propan-2-yl)amino]pyrrolidin-1-yl}cyclohexyl]-4-{5-[(1S,2S)-2-fluorocyclopropyl]-1,2,4-oxadiazol-3-yl}-4-methylpiperidine-1-carboxamide]",493%

# The next lines start with the values.
row,agonist activity (%),Structure (SMILES)
1,394%,"CC1(CN2CC[C@H](O[C@H]3CCCC(F)(F)[C@@H]3NC(=O)N3CCC(C)(c4noc(C5CC5)n4)CC3)C2)CC1 [Example 126, 4-(5-cyclopropyl-1,2,4-oxadiazol-3-yl)-N-[(1R,6S)-2,2-difluoro-6-({(3S)-1-[(1-methylcyclopropyl)methyl]pyrrolidin-3-yl}oxy)cyclohexyl]-4-methylpiperidine-1-carboxamide]"
2,368%,"CC(C)N1CCN([C@H]2CCCCC[C@@H]2NC(=O)N2CCC(C)(c3noc(C4CC4)n3)CC2)CC1 (racemic) [Example 151, rac-4-(5-cyclopropyl-1,2,4-oxadiazol-3-yl)-4-methyl-N-{(1S,2S)-2-[4-(propan-2-yl)piperazin-1-yl]cycloheptyl}piperidine-1-carboxamide]"
3,372%,"CC(C)N1CCC(O[C@H]2CCCC(F)(F)[C@@H]2NC(=O)N2CCC(C)(c3noc(C4CC4)n3)CC2)CC1 [Example 84, 4-(5-cyclopropyl-1,2,4-oxadiazol-3-yl)-N-[(1R,6S)-2,2-difluoro-6-{[1-(propan-2-yl)piperidin-4-yl]oxy}cyclohexyl]-4-methylpiperidine-1-carboxamide]"
4,493%,"CC(C)N1CCC(S[C@H]2CCCC(F)(F)[C@@H]2NC(=O)N2CCC(C)(c3noc([C@@H]4C[C@@H]4F)n3)CC2)CC1 [Example 154, N-[(1S,6S)-2,2-difluoro-6-{[1-(propan-2-yl)piperidin-4-yl]sulfanyl}cyclohexyl]-4-{5-[(1S,2S)-2-fluorocyclopropyl]-1,2,4-oxadiazol-3-yl}-4-methylpiperidine-1-carboxamide]"
5,366%,"CC(C)N1CCC(N(C)[C@H]2CCCC(F)(F)[C@@H]2NC(=O)N2CCC(C)(c3noc([C@@H]4C[C@@H]4F)n3)CC2)CC1 [Example 123, N-[(1R,6S)-2,2-difluoro-6-{methyl[1-(propan-2-yl)piperidin-4-yl]amino}cyclohexyl]-4-{5-[(1S,2S)-2-fluorocyclopropyl]-1,2,4-oxadiazol-3-yl}-4-methylpiperidine-1-carboxamide]"
6,391%,"CC1(c2noc([C@@H]3C[C@@H]3F)n2)CCN(C(=O)N[C@@H]2[C@@H](N3CCC(N4CCCC4)CC3)CCCC2(F)F)CC1 [Example 124, N-{(1R,6S)-2,2-difluoro-6-[4-(pyrrolidin-1-yl)piperidin-1-yl]cyclohexyl}-4-{5-[(1S,2S)-2-fluorocyclopropyl]-1,2,4-oxadiazol-3-yl}-4-methylpiperidine-1-carboxamide]"
7,373%,"CC(C)N1CCN([C@H]2CCCC(C)(C)[C@@H]2NC(=O)N2CCC(C)(c3noc(C4CC4)n3)CC2)CC1 [Example 147, 4-(5-cyclopropyl-1,2,4-oxadiazol-3-yl)-N-{(1S,6S)-2,2-dimethyl-6-[4-(propan-2-yl)piperazin-1-yl]cyclohexyl}-4-methylpiperidine-1-carboxamide]"
8,360%,"CC(C)c1nc([C@H]2CCCC(F)(F)[C@@H]2NC(=O)N2CCC(C)(c3noc(C4CC4)n3)CC2)no1 [Example 85, 4-(5-cyclopropyl-1,2,4-oxadiazol-3-yl)-N-{(1R,6S)-2,2-difluoro-6-[5-(propan-2-yl)-1,2,4-oxadiazol-3-yl]cyclohexyl}-4-methylpiperidine-1-carboxamide]"
9,326%,"CC(C)OC1CCN([C@H]2CCCC(F)(F)[C@@H]2NC(=O)N2CCC(C)(c3noc([C@@H]4C[C@@H]4F)n3)CC2)CC1 [Example 101, N-[(1R,6S)-2,2-difluoro-6-{4-[(propan-2-yl)oxy]piperidin-1-yl}cyclohexyl]-4-{5-[(1S,2S)-2-fluorocyclopropyl]-1,2,4-oxadiazol-3-yl}-4-methylpiperidine-1-carboxamide]"
10,359%,"CC(C)N1CCC(C)(O[C@H]2CCCC(F)(F)[C@@H]2NC(=O)N2CCC(C)(c3noc([C@@H]4C[C@@H]4F)n3)CC2)CC1 [Example 109, N-[(1R,6S)-2,2-difluoro-6-{[4-methyl-1-(propan-2-yl)piperidin-4-yl]oxy}cyclohexyl]-4-{5-[(1S,2S)-2-fluorocyclopropyl]-1,2,4-oxadiazol-3-yl}-4-methylpiperidine-1-carboxamide]"
11,350%,"CC(C)N1CCN(C(=O)O[C@H]2CCCC(F)(F)[C@@H]2NC(=O)N2CCC(C)(c3noc([C@@H]4C[C@@H]4F)n3)CC2)CC1 [Example 153, (1S,2R)-3,3-difluoro-2-[(4-{5-[(1S,2S)-2-fluorocyclopropyl]-1,2,4-oxadiazol-3-yl}-4-methylpiperidine-1-carbonyl)amino]cyclohexyl 4-(propan-2-yl)piperazine-1-carboxylate]"
12,69%,"CC(C)N1CCN([C@@H]2CCCC(F)(F)[C@H]2NC(=O)N2CCC(C)(c3noc([C@H]4C[C@H]4F)n3)CC2)CC1 [Example 82, N-{(1S,6R)-2,2-difluoro-6-[4-(propan-2-yl)piperazin-1-yl]cyclohexyl}-4-{5-[(1R,2R)-2-fluorocyclopropyl]-1,2,4-oxadiazol-3-yl}-4-methylpiperidine-1-carboxamide]"
13,488%,"CC(C)CN1CC[C@H](O[C@H]2CCCC(F)(F)[C@@H]2NC(=O)N2CCC(C)(c3noc(C4CC4)n3)CC2)C1 [Example 116, 4-(5-cyclopropyl-1,2,4-oxadiazol-3-yl)-N-[(1R,6S)-2,2-difluoro-6-{[(3S)-1-(2-methylpropyl)pyrrolidin-3-yl]oxy}cyclohexyl]-4-methylpiperidine-1-carboxamide]"

# Same assay, conditions: relative percentage of luminescence for the luminescence (100%) of Orexin A (100 pM); CHO cells transiently expressing human orexin receptor type 2 and apoaequorin; Orexin A Lot. 671009; 0.0001 µM
row,Structure (SMILES),agonist activity (%)
1,"CN(CC1CC1)C1C[C@H]2CC[C@@H](C1)N2[C@H]1CCCC(F)(F)[C@@H]1NC(=O)N1CCC(C)(c2noc([C@@H]3C[C@@H]3F)n2)CC1 (stereo partly drawn) [Example 142, N-[(1R,6S)-6-{(1R,3S,5S)-3-[(cyclopropylmethyl)(methyl)amino]-8-azabicyclo[3.2.1]octan-8-yl}-2,2-difluorocyclohexyl]-4-{5-[(1S,2S)-2-fluorocyclopropyl]-1,2,4-oxadiazol-3-yl}-4-methylpiperidine-1-carboxamide]",407%
